Among the test systems are HOP-92 NSCLC; A549 NSCLC; ACHN renal; SK-MEL-28 melanoma; NCI-H23 lung; SK-MEL-5 melanoma; HL-60(TB) leukemia; UACC-62 melanoma; UO-31 renal; IGROV1 ovarian.
Holding throughout (assay): NCI-60 cell line screen, 48 h

Structures are written as SMILES. Values joined by “and” are separate entries in the source; they are usually repeats but may differ in a detail not shown here. Identical values can stand only once.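 Step 1: Grow cells in 96-well plates. Step 2: Expose to compound for 48 hours at 5 concentrations. Step 3: Interpolate endpoints linearly; if unreached, use highest concentration. At the GI50, growth is halved. The concentration for full growth arrest is given as TGI.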

As for `CCCCCCN(C)Cc1ccc(OCCOc2ccc(CN(C)CCCCCC)cc2)cc1`, the GI50 in the experiment with HOP-92 NSCLC is 0.407 µM; in the experiment on A549 NSCLC, 1.4 µM; in the experiment on ACHN renal, 1.62 µM; with SK-MEL-28 melanoma, 1.45 µM; with NCI-H23 lung, 1.52 µM; in the experiment on SK-MEL-5 melanoma, 1.36 µM. Moreover, the GI50 in the experiment with HL-60(TB) leukemia is 1.91 µM; in the experiment on UACC-62 melanoma, 1.6 µM; in the experiment with UO-31 renal, 1.04 µM; with IGROV1 ovarian it was 1.33 µM. Further, the TGI in the experiment on HOP-92 NSCLC was 2.05 µM; in the experiment with A549 NSCLC, 2.91 µM; in the experiment with ACHN renal, 3.63 µM; with SK-MEL-28 melanoma, 2.88 µM; with NCI-H23 lung it was 3.42 µM; in the experiment on SK-MEL-5 melanoma, 2.66 µM. The TGI was determined as 4.51 µM with HL-60(TB) leukemia, 3.4 µM in the experiment with UACC-62 melanoma, 5.01 µM in the experiment with UO-31 renal and 3.13 µM in the experiment on IGROV1 ovarian.
Take `O=C(Nc1nc(-c2ccc(Cl)cc2)nc2c1sc(=S)n2-c1ccccc1)C(F)(F)F`: the GI50 with HOP-92 NSCLC was 2.35 µM; in the experiment with A549 NSCLC, 3.88 µM; with ACHN renal, 1.81 µM; in the experiment on SK-MEL-28 melanoma it was 6.01 µM; in the experiment on NCI-H23 lung, 5.45 µM; in the experiment on SK-MEL-5 melanoma, 8.23 µM. Moreover, the GI50 is over 100 µM with HL-60(TB) leukemia, 3.55 µM in the experiment with UACC-62 melanoma, 1.87 µM with UO-31 renal and 3.9 µM in the experiment on IGROV1 ovarian. In addition, the TGI was 6.08 µM in the experiment on HOP-92 NSCLC; 18 µM in the experiment on A549 NSCLC; 3.56 µM in the experiment with ACHN renal; over 100 µM with SK-MEL-28 melanoma; 26.8 µM in the experiment on NCI-H23 lung; 32.3 µM in the experiment with SK-MEL-5 melanoma. For the same molecule, the TGI is over 100 µM in the experiment on HL-60(TB) leukemia, 15 µM with UACC-62 melanoma, 4.04 µM with UO-31 renal and 14.3 µM in the experiment on IGROV1 ovarian.
For `CC[C@@H](C)Nc1cc(C(=O)NC2CC3CCC(C2)N3c2ccc(C(=O)C3CC3)cn2)c(C)cc1C(N)=O` (some centres undefined), the GI50 in the experiment with HOP-92 NSCLC was 0.0422 µM; with A549 NSCLC it was 0.0343 µM; with ACHN renal it was 0.0441 µM; in the experiment with SK-MEL-28 melanoma, 0.0519 µM; with NCI-H23 lung it was 0.0589 µM; in the experiment on SK-MEL-5 melanoma, 0.0599 µM. Moreover, the GI50 was 0.0329 µM in the experiment with HL-60(TB) leukemia, 0.036 µM in the experiment with UACC-62 melanoma, 0.0479 µM in the experiment with UO-31 renal and 0.0436 µM with IGROV1 ovarian. The TGI is 0.599 µM in the experiment on HOP-92 NSCLC; over 100 µM with A549 NSCLC; over 100 µM in the experiment on ACHN renal; over 100 µM in the experiment with SK-MEL-28 melanoma; over 100 µM with NCI-H23 lung; 8.35 µM in the experiment with SK-MEL-5 melanoma. In addition, the TGI in the experiment on HL-60(TB) leukemia was 88.9 µM; in the experiment on UACC-62 melanoma, 12.1 µM; in the experiment with UO-31 renal, over 100 µM; in the experiment on IGROV1 ovarian, over 100 µM.
In the case of `CC1CC(C)C2=NOS3=C2C1=NO3` (centres undefined), the TGI with HOP-92 NSCLC, in the experiment on A549 NSCLC, in the experiment on ACHN renal, with SK-MEL-28 melanoma, with NCI-H23 lung and in the experiment with SK-MEL-5 melanoma was over 100 µM each time. The TGI in the experiment with HL-60(TB) leukemia, in the experiment on UACC-62 melanoma, with UO-31 renal and with IGROV1 ovarian was over 100 µM throughout.
With `NC(=Nc1nc(-c2ccccn2)cc2ccccc12)c1ccccn1`, the GI50 was 0.0765 µM with HOP-92 NSCLC; 0.255 µM with A549 NSCLC; 0.0115 µM in the experiment with ACHN renal; 0.323 µM with SK-MEL-28 melanoma; 0.0743 µM in the experiment with NCI-H23 lung; 0.0462 µM with SK-MEL-5 melanoma. For the same molecule, the GI50 in the experiment on HL-60(TB) leukemia is 0.00104 µM; in the experiment on UACC-62 melanoma, 0.0492 µM; in the experiment with UO-31 renal, 0.239 µM; with IGROV1 ovarian, 0.0212 µM. Further, the TGI with HOP-92 NSCLC was 5.92 µM; in the experiment on A549 NSCLC it was over 48.7 µM; with SK-MEL-28 melanoma, over 100 µM; in the experiment on NCI-H23 lung it was over 61.6 µM; in the experiment on SK-MEL-5 melanoma, over 78.1 µM; in the experiment on HL-60(TB) leukemia, 0.0598 µM and 0.251 µM. Besides, the TGI in the experiment with UACC-62 melanoma was 0.171 µM and 0.266 µM; with UO-31 renal, 0.921 µM and 1.96 µM; in the experiment on IGROV1 ovarian, over 24.1 µM.
As for `CCCCCCCCCOC(=S)NCCCCC`, the TGI with HOP-92 NSCLC was 53.9 µM; in the experiment on A549 NSCLC, 81.7 µM; in the experiment with ACHN renal it was 69.9 µM; with SK-MEL-28 melanoma it was over 100 µM; with NCI-H23 lung, 68.3 µM; in the experiment on SK-MEL-5 melanoma it was 40.7 µM. The TGI in the experiment on HL-60(TB) leukemia is 39.5 µM; in the experiment on UACC-62 melanoma, 89 µM; in the experiment with UO-31 renal, 51.1 µM; with IGROV1 ovarian, over 100 µM.
In the case of `CC(=O)NC(CCCCN(Cc1ccccc1)C(=O)N(CCCl)N=O)C(=O)NCc1ccccc1` (centres undefined), the TGI with HOP-92 NSCLC is 68.6 µM; in the experiment with A549 NSCLC, 49.5 µM; with ACHN renal, 41 µM; in the experiment on SK-MEL-28 melanoma, over 100 µM; with NCI-H23 lung it was 50.3 µM; in the experiment on SK-MEL-5 melanoma, over 100 µM. The TGI with HL-60(TB) leukemia is 65.4 µM; with UACC-62 melanoma it was 36.5 µM; in the experiment with UO-31 renal, 57.2 µM; in the experiment on IGROV1 ovarian, 60 µM.
For the molecule `Cc1cc(C)nc(NS(=O)(=O)c2ccc(NC(=O)c3ccc(Cl)c4c(Nc5ccc(S(=O)(=O)N=C(N)N)cc5)c5ccccc5nc34)cc2)n1`, the TGI in the experiment with HOP-92 NSCLC was 67.7 µM; in the experiment on A549 NSCLC, over 100 µM; with ACHN renal, over 100 µM; in the experiment on SK-MEL-28 melanoma it was over 100 µM; in the experiment with NCI-H23 lung, 17.5 µM; with SK-MEL-5 melanoma it was over 100 µM. Also, the TGI was 25.1 µM with HL-60(TB) leukemia, over 100 µM in the experiment with UACC-62 melanoma, over 100 µM in the experiment on UO-31 renal and over 100 µM in the experiment with IGROV1 ovarian.
On to `CC1=NN(C(=O)c2ccc(Cl)cc2)C(=O)/C1=C/c1ccco1`, for which the TGI in the experiment with HOP-92 NSCLC, with A549 NSCLC, in the experiment on ACHN renal, in the experiment with SK-MEL-28 melanoma, in the experiment with NCI-H23 lung and with SK-MEL-5 melanoma was over 100 µM in each case. Besides, the TGI with HL-60(TB) leukemia, with UACC-62 melanoma, in the experiment with UO-31 renal and with IGROV1 ovarian was over 100 µM throughout.
For `O=C1C(=O)N(c2cccc(C(F)(F)F)c2)C(=O)C(=O)C1c1nc2ccccc2s1`, the TGI with HOP-92 NSCLC, with A549 NSCLC, in the experiment with ACHN renal, with SK-MEL-28 melanoma, with NCI-H23 lung and in the experiment with SK-MEL-5 melanoma was over 100 µM throughout. For the same molecule, the TGI is 59.8 µM in the experiment with HL-60(TB) leukemia, over 100 µM in the experiment with UACC-62 melanoma, over 100 µM with UO-31 renal and over 100 µM in the experiment with IGROV1 ovarian.

The values above are taken from PubChem BioAssay (NCI).
